Where “and” joins values, the source holds several entries; their conditions need not be identical. Equal values may be shown once. Read-outs that look alike come from different tables or passages of the source.
Key:
SARS-CoV-2 PLpro [1] = target: T1, SARS-CoV-2 PLpro (Severe acute respiratory syndrome coronavirus 2, UniProt P0DTD1); assay: biochemical; design: papain-like protease (PL^pro; domain of nsp3); purchased Anaspec (Fremont, USA) AS-72263; details: for inhibition at 20 µM: read-out: SARS-CoV-2 PLpro inhibition % enzyme inhibition (20 µM); for SARS-CoV-2 PLpro inhibition % enzyme inhibition (20 µM): commercial Anaspec assay kit
SARS-CoV-2 PLpro [2] = target: T1, SARS-CoV-2 PLpro; assay: PL^pro fluorogenic peptide cleavage assay (substrate Z-RLRGG-AMC); assay type: biochemical; design: papain-like protease (PL^pro; domain of nsp3); His; purchased BPS Biosciences BPS-100735-1; details: for inhibition at 20 µM: read-out: SARS-CoV-2 PL^pro enzyme inhibition (%) 20 μM; for inhibition at 100 µM: read-out: SARS-CoV-2 PL^pro enzyme inhibition (%) 100 μM
SARS-CoV-2 [3] = assay: Antiviral assay in Calu-3 cells (spike staining); assay type: cell-based; details: for antiviral activity against SARS-CoV-2 (in words): two different cell lines (Caco-2, Calu-3)
[4] = Cytotoxicity in Calu-3 cells; details: human
SARS-CoV-2 M^pro = SARS-CoV-2 M^pro (Severe acute respiratory syndrome coronavirus 2, UniProt P0DTD1); assay: biochemical; assay type: biochemical; details: for inhibition at 20 µM: read-out: SARS-CoV-2 M^pro enzyme inhibition (%) 20 μM; for inhibition at 100 µM: 100 μM compound, read-out: SARS-CoV-2 M^pro enzyme inhibition (%) 100 μM; for IC50: read-out: SARS-CoV-2 M^pro IC50
SARS-CoV-2 [5] = assay: Antiviral assay in Caco-2 cells; assay type: cell-based; details: Severe acute respiratory syndrome coronavirus 2, Caco-2, read-out: Anti SARS-CoV-2 activity Caco-2 IC50 (µM)
[6] = Cytotoxicity in Caco-2 cells; details: human
M^pro = M^pro (Severe acute respiratory syndrome coronavirus 2, UniProt P0DTD1); assay type: binding; details: 2 μM protein, 50 μM ligand
in vitro = details: human
[7] = Severe acute respiratory syndrome coronavirus 2, Calu-3 cells, MOI 0.01, 48 h postinfection, read-out: Anti-SARS-CoV-2 activity IC50
[8] = 20 μM compound, buffer with 5 mM DTT, for values marked a the relative standard deviation of 6% applies
[9] = Severe acute respiratory syndrome coronavirus 2, Calu-3, 48 h, read-out: Anti-SARS-CoV-2 activity IC50 (μM)

| SMILES | inhibition at 20 µM (SARS-CoV-2 PLpro [1]) | inhibition at 20 µM (SARS-CoV-2 PLpro [2]) | inhibition at 100 µM (SARS-CoV-2 PLpro [2]) | inhibition at 20 µM (SARS-CoV-2 M^pro; [8]) | inhibition at 100 µM (SARS-CoV-2 M^pro; buffer with 5 mM DTT) | also measured |
| --- | --- | --- | --- | --- | --- | --- |
| COc1ccc2c(C)c(CC(=O)Nc3c(C)cccc3C(C)C)c(=O)oc2c1OC [Compound 45] | -2.6 ± 36.1% | 9 ± 4.3% | 2.6 ± 0.1% | – | – | – |
| CCC(CC)COC(=O)[C@H](C)N[P@](=O)(OC[C@H]1O[C@@](C#N)(c2ccc3c(N)ncnn23)[C@H](O)[C@@H]1O)Oc1ccccc1 [Compound 1, remdesivir, reference compound] | – | – | – | – | – | IC50 (SARS-CoV-2 [3]; [7]): 0.00125 µM; CC50 [4]: > 0.1 µM |
| COc1cc(CNC(=O)CCCC/C=C/C(C)C)ccc1O [Compound 31, trans-capsaicin] | 32.4 ± 13.7% | 5.6 ± 9.7% | 5.3 ± 0.1% | – | – | – |
| O=C(CCc1ccccc1)C[C@H]1C[C@H](c2ccccc2)c2c(cc(/C=C/c3ccccc3)oc2=O)O1 [Compound 17, katsumadain A] | – | – | – | 5% | 47.7 ± 2.8% | – |
| C=CCc1ccc(O)c(-c2ccc(O)c(CC=C)c2)c1 [Compound 35, honokiol] | 80.6 ± 9.9% | 4.9 ± 4.6% | 5.3 ± 3.2% | – | – | IC50 (SARS-CoV-2 [3]; [9]): 28.4 µM; antiviral activity against SARS-CoV-2 (in words) (SARS-CoV-2 [3]): moderately acting antiviral compounds; SARS-CoV-2 PLpro inhibition % enzyme inhibition (20 µM) (SARS-CoV-2 PLpro [1]): significant enzyme inhibition; CC50 [4]: > 20 µM; IC50 (SARS-CoV-2 [5]): 16.2 µM; CC50 [6]: 91.2 µM |
| C=CCc1ccc(O)c(-c2cc(CC=C)ccc2O)c1 [Compound 36, magnolol] | 58.2 ± 11.5% | 4.3 ± 6.6% | – | – | – | IC50 (SARS-CoV-2 [3]; [9]): 26.8 µM; antiviral activity against SARS-CoV-2 (in words) (SARS-CoV-2 [3]): moderately acting antiviral compounds; CC50 [4]: > 20 µM; IC50 (SARS-CoV-2 [5]): 17.7 µM; CC50 [6]: 47.3 µM |
| COc1cc2c(cc1OC)/C(=C/C(=O)c1ccc(CSC)cc1)NCC2 [Compound 41] | – | 9.6 ± 5.8% | 14.6 ± 13.1% | – | – | – |
| CC1=C[C@H](c2c(O)ccc([C@@H]3CC(=O)c4c(O)cc(O)cc4O3)c2O)[C@@H](C(=O)c2ccc(O)cc2O)[C@H](c2ccc(O)cc2O)C1 [Compound 16, kuwanon L] | – | – | – | 70.4% | 97.6 ± 2.5% | STD signals (M^pro): exhibited STD signals; CC50 [4]: 97.7 µM; IC50 (SARS-CoV-2 M^pro): 5.25 µM and 5.3 µM |
| CC(C)=CCc1cc(-c2coc3cc(O)ccc3c2=O)ccc1O [Compound 20, neobavaisoflavone] | – | – | – | – | – | inhibition at 20 µM (SARS-CoV-2 M^pro): 18% |
| CC(C)(O)[C@H](O)COc1c2ccoc2cc2oc(=O)ccc12 [Compound 37, oxypeucedanin hydrate] | 97.5 ± 14.6% | – | – | – | – | IC50 (SARS-CoV-2 [3]; [9]): > 100 µM; SARS-CoV-2 PLpro inhibition % enzyme inhibition (20 µM) (SARS-CoV-2 PLpro [1]): significant enzyme inhibition; CC50 (in vitro): > 100 µM |
| Oc1ccc([C@@H]2c3c(O)cc(O)cc3[C@@H]3c4c(O)cc(O)cc4[C@H]2[C@H]3c2ccc(O)cc2)cc1 [Compound 25, ampelopsin F] | – | – | – | 18.9 ± 2.2% | 37.5 ± 0.8% | – |
| CC(C)(O)CCc1c(-c2ccc(O)cc2O)oc2c3c(cc(O)c2c1=O)OC(C)(C)C=C3 [Compound 24, morusinol] | – | – | – | 23.1 ± 2.8% | 71.2 ± 1.9% | – |
| CC(C)=CCc1c(-c2ccc(O)c3c2OC(C)(C)C=C3)oc2cc(O)cc(O)c2c1=O [Compound 22, kuwanon A] | – | – | – | 45.5 ± 7.1% | 79.2 ± 2.4% | IC50 (SARS-CoV-2 [3]; [7]): 35.6 µM; CC50 (in vitro): 47.7 µM; IC50 (SARS-CoV-2 M^pro; buffer with 5 mM DTT): 35.2 µM |
| Cn1cc(CNC(=O)c2cc([N+](=O)[O-])ccc2Cl)cn1 [Compound 38] | 26.1 ± 15.2% | 3 ± 0.7% | 6.4 ± 4.6% | – | – | – |
| O=C(/C=C/c1ccc(O)c(O)c1)OC1CC(OC(=O)/C=C/c2ccc(O)c(O)c2)(C(=O)O)CC(O)C1O (centres unmarked) [Compound 19, cynarine] | – | – | – | – | 9.8 ± 13.3% | – |
| O=C(/C=C/c1ccc(O)c(O)c1)O[C@@H](C(=O)O)[C@@H](OC(=O)/C=C/c1ccc(O)c(O)c1)C(=O)O [Compound 18, chicoric acid] | – | – | – | 0.7% | 11.5 ± 0.6% | – |
| COc1ccc(C(=O)COc2ccc3c(c2)O/C(=C\c2cc(OC)ccc2OC)C3=O)cc1 [Compound 43] | 13.5 ± 25.5% | 10 ± 5.4% | 14.3 ± 3.4% | – | – | – |
